Source: patent US4866058A, “Method for control of hyperlipidemia” (priority 1988, dated 1989)
Like-named read-outs stand apart in the source and are kept apart here.

Assays:
[1] = in vivo; conditions: mouse, ip
[2] = tested on: serum cholesterol and serum triglyceride levels; experiment: Testing of normal mice: hypolipidemic activity in CF1 mice; format: in vivo, CF1 male mice; conditions: for response vs control in vivo at 20 mg/kg/day: Mus musculus
Method: The following compounds were tested for their hypolpidemic activity in CF1 mice.
Compounds A-V as defined above, were suspended in an aqueous 1 percent carboxymethylcellulose (CMC) solution and homogenized. Each of the so prepared compounds were administered to a group of six CF1 male mice, each weighing approximately 25 grams, intraperitioneally for 16 days. Each of these compounds were provided in a dosage of 20 mg/kg/d ip. On Days 9 and 16 blood was obtained by tail vein bleeding. The blood serum so obtained was separated by centrifugation for three minutes. Serum cholesterol levels were determined by a modification of the Liebermann-Burchard reaction (Ness, Clin. Chim. Acta., Vol. 10, 229 [1964]). Serum triglyceride levels were determined on Day 16 by use of the Fisher, Hycel Triglyceride Test Kit.
In addition to the above-described treated mice, an untreated control group of six mice were similarly tested on Days 9 and 16 to determine their serum cholesterol and trigylceride blood levels. Based on the results obtained for the untreated control group, the percent control, based on serum cholesterol and serum triglyceride levels of the treated mice compared to the untreated mice, was obtained. Table 1 reports this percent control, including standard deviation, indicating the level of confidence of these numbers.

[3] = tested on: serum cholesterol and serum triglyceride levels; experiment: Testing of hyperlipidemic mice (atherogenic diet); format: in vivo, CF1 male mice; conditions: hyperlipidemic CF1 mice, 20 mg/kg/d intraperitoneally, Day 12
Method: A group of six CF^1 male mice (about 25 g) were placed on a commercial diet (U.S. Biochemical Corporation Basal Atherogenic Test Diet) which produced a "hyperlipidemic" state. That is, the average serum cholesterol level in the group of treated mice was raised from 122 to 375 mg percent and triglyceride levels were raised from 137 to 367 mg/dL.

[4] = tested on: plasma lipids; conditions: rats; cited from earlier work
[5] = tested on: serum lipoprotein; experiment: Cholesterol content of serum lipoprotein of treated Sprague-Dawley rats; format: in vivo; conditions: orally 14 days at 20 mg/kg/day
Text: (§1) A test solution of Compounds A, F, J, M, N and O were suspended in an aqueous solution of 1% CMC, homogenized and administered orally to six Sprague-Dawley male rats, which each weighted approximately 350 grams. Administration of the compounds was by an intubation needle. The rats were each fed with 20 milligrams of Compounds A, F, J, M, N and O per kilogram of body weight per day for 14 days. Similarly, six Sprague-Dawley male rats of approximately the same weight (that used for testing F weighed approximately 160 grams) were fed similar volumes of the same aqueous 1% CMC solution without the active agents, also orally, administered by intubation needle. In addition, as a control, a similar group of six male Sprague-Dawley rats were untreated.
The cholesterol content of serum lipoprotein
of Sprague-Dawley Rats treated
orally for 14 days at 20 mg/kg/day

[6] = LD50 value in mice as single injection IP; conditions: mouse, in vivo
[7] = tested on: Serum cholesterol and triglyceride levels; experiment: Serum testing of normal rats; format: in vivo, Sprague-Dawley male rats; conditions: 20 mg/kg per day orally
Text: as §1
On Days 7 and 14, blood was obtained from each of the rats of the three groups by tail vein bleeding. The blood obtained was separated by centrifugation for three minutes. Serum cholesterol and triglyceride levels were determined in accordance with the procedure of Example 6.

[8] = 216 h, normal CF1 mice, 20 mg/kg/d ip, Day 9, read-out: Serum Cholesterol, Day 9
[9] = 384 h, normal CF1 mice, 20 mg/kg/d ip, Day 16, read-out: Serum Cholesterol, Day 16
[10] = 384 h, normal CF1 mice, 20 mg/kg/d ip, Day 16, read-out: Serum Triglyceride, Day 16
[11] = normal CF1 mice, 20 mg/kg/d ip, Day 16
[12] = ip, 216 h, read-out: Serum Cholesterol, Day 9
[13] = ip, 384 h, read-out: Serum Cholesterol, Day 16
[14] = ip, 384 h, read-out: Serum Triglyceride, Day 16

Row | Compound | response vs control in vivo at 20 mg/kg/day [2, 8] | response vs control in vivo at 20 mg/kg/day [2, 9] | response vs control in vivo at 20 mg/kg/day [2, 10] | also measured
1 | O=c1[nH][nH]c(=O)n1-c1ccc(Cl)cc1 [J, 4-(4-chlorophenyl)-1,2,4-triazolidine-3,5-dione] | 90 ± 5% | 58 ± 4% | 43 ± 4% | LD50 [1]: > 500 mg/kg; Serum Cholesterol [3]: 46% of Control; Serum Triglyceride [3]: 49% of Control
2 | COc1ccc(-n2c(=O)n(C(=O)c3ccccc3)n(C(=O)c3ccccc3)c2=O)cc1 [Q, 4.(4-methoxyphenyl)-1,2-diphenylcarbonyl-1,2,4-triazolidine-3,5-dione] | 67% | 86% | 75% | 
3 | CC(=O)n1[nH]c(=O)n(-c2ccc(Cl)cc2)c1=O [Compound D, 4-(4-chlorophenyl)-1-methylcarbonyl-1,2,4-triazolidine-3,5-dione] | 73 ± 4% | 64 ± 6% | 55 ± 7% | 
4 | CC(=O)n1c(=O)n(-c2ccccc2)c(=O)n1C(C)=O [B, 4-phenyl-1,2-dimethylcarbonyl-1,2,4-triazolidine-3,5-dione] | 70 ± 6% | 64 ± 5% | 61 ± 5% | 
5 | Cn1c(=O)[nH][nH]c1=O [K, 4-methyl-1,2,4-triazolidine-3,5-dione] | 88 ± 6% | 67 ± 5% | 89 ± 5% | 
6 | O=c1[nH][nH]c(=O)n1-c1ccccc1 [E, 4-phenyl-1,2,4-triazolidine-3,5-dione] | 71 ± 5% | 48 ± 3% | 68 ± 6% | 
7 | O=c1[nH][nH]c(=O)n1-c1ccc([N+](=O)[O-])cc1 [H, 4-(4-nitrophenyl)-1,2,4-triazolidine-3,5-dione] | 73 ± 5% | 66 ± 5% | 47 ± 5% | 
8 | CCC(=O)n1c(=O)n(-c2ccc([N+](=O)[O-])cc2)c(=O)n1C(=O)CC [Compound S, 4-(4-nitrophenyl)-1,2 diethylcarbonyl-1,2,4-triazolidine-3,5-dione] | 72% | 36% | 62% | 
9 | CCCCCC(=O)n1[nH]c(=O)n(-c2ccc(Cl)cc2)c1=O [V, 4-(4-chlorophenyl)1-pentylcarbonyl (2 --H)-1,2,4-triazolidine-3,5 dione] | 77% | 52% | 42% | 
10 | 4-(4- -n-butyl)-1,2 dipentylcarbonyl-1,2,4-triazolidine-3,5-dione |  |  |  | Serum Cholesterol, Day 9 ([2]; normal CF1 mice, 20 mg/kg/d ip, Day 9): 69 percent control; Serum Cholesterol, Day 16 [2, 11]: 49 percent control; Serum Triglyceride, Day 16 [2, 11]: 53 percent control
11 | O=C(O)c1cc(=O)[nH]c(=O)[nH]1 [Orotic acid] |  |  |  | plasma lipids blood level [4]: decrease the plasma lipids blood level in rats
12 | O=c1[nH][nH]c(=O)[nH]1 [Parent, 1,2,4-triazolidine-3,5-dione] | 81% | 79% | 73% | 
13 | CCOC(=O)c1nc(=O)n(-c2ccccc2)c(=O)[nH]1 [Compound N, 3-phenyl-6-ethoxycarbonyl-1,3,5-triazine-2,4(1 --H,3 --H)-dione] | 63 ± 6% | 54 ± 5% | 51 ± 2% | VLDL cholesterol [5]: 50% of Control; Serum Cholesterol [3]: 50% of Control; Serum Triglyceride [3]: 46% of Control
14 | CC(=O)n1[nH]c(=O)n(-c2ccccc2)c1=O [A, 4-phenyl-1-methylcarbonyl-1,2,4-triazolidine-3,5-dione] | 67 ± 5% | 61 ± 6% | 48 ± 6% | LD50 [1]: > 500 mg/kg; Serum Cholesterol [3]: 41% of Control; Serum Triglyceride [3]: 40% of Control
15 | CCOC(=O)C1n2c(=O)n(-c3ccc(Cl)cc3)c(=O)n21 [L, 3-(4-chlorophenyl)-6-ethoxyacarbonyl-1,3,5-triazabicyclo[3.1.0]hexane-2,4-dione] |  |  |  | response vs control in vivo at 20 mg/kg/day [2, 12]: 74 ± 3%; response vs control in vivo at 20 mg/kg/day [2, 13]: 56 ± 5%; response vs control in vivo at 20 mg/kg/day [2, 14]: 66 ± 7%
16 | CCCCn1c(=O)[nH][nH]c1=O [G, 4-(4-n-butyl)-1,2,4-triazolidine-3,5-dione] | 71 ± 6% | 69 ± 5% | 79 ± 8% | 
17 | COc1ccc(-n2c(=O)n(C(C)=O)n(C(C)=O)c2=O)cc1 [P, 4(4-methoxyphenyl)-1,2-dimethylcarbonyl-1,2,4-triazolidine-3,5-dione] | 76% | 57% | 49% | 
18 | COc1ccc(-n2c(=O)[nH][nH]c2=O)cc1 [F, 4-(4-methoxyphenyl)-1,2,4-triazolidine-3,5-dione] | 75 ± 5% | 56 ± 4% | 58 ± 3% | 
19 | CCC(=O)n1c(=O)n(-c2ccc(OC)cc2)c(=O)n1C(=O)CC [R, 4.(4-methoxyphenyl)-1,2 diethylcarbonyl-1,2,4-triazolidine-3,5-dione] | 62% | 63% | 62% | 
20 | CC(=O)n1c(=O)n(-c2ccc(Cl)cc2)c(=O)n1C(C)=O [U, 4-(4-chlorophenyl)-1,2-dimethylcarbonyl-1,2,4-triazolidine-3,5-dione] | 72% | 51% | 51% | 
21 | CCOC(=O)n1[nH]c(=O)n(-c2ccccc2)c1=O [C, 4-phenyl-1-ethoxycarbonyl-1,2,4-triazolidine-3,5-dione] | 73 ± 7% | 69 ± 5% | 62 ± 6% | 
22 | CCOC(=O)c1nc(=O)n(-c2ccc(Cl)cc2)c(=O)[nH]1 [O, 3-(4-chlorophenyl)-6-ethoxycarbonyl-1,3,5-triazine-2,4(1 --H,3 --H)-dione] | 63 ± 4% | 57 ± 4% | 55 ± 6% | 
23 | CCOC(=O)C1n2c(=O)n(-c3ccccc3)c(=O)n21 [M, 3-phenyl-6-ethoxycarbonyl-1,3,5-triazabicyclo[3.1.0]hexane-2,4-dione] |  |  |  | LD50 [6]: > 500 mg/kg; Serum Cholestrol, Day 7 ([7]; Day 7): 70% of Control; Serum Triglyceride, Day 7 ([7]; Day 7): 36% of Control; Serum Cholestrol, Day 14 ([7]; Day 14): 36% of Control; Serum Triglyceride, Day 14 ([7]; Day 14): 54% of Control; HDL cholesterol [5]: 340% of Control; LDL cholesterol [5]: 67% of Control; VLDL cholesterol [5]: 71% of Control; response vs control in vivo at 20 mg/kg/day [2, 12]: 62 ± 6%; response vs control in vivo at 20 mg/kg/day [2, 13]: 57 ± 5%; response vs control in vivo at 20 mg/kg/day [2, 14]: 59 ± 6%; Serum Cholesterol [3]: 46% of Control; Serum Triglyceride [3]: 54% of Control
